# Reference: PubChem BioAssay AID1996
# Conditions: buffer; pH 7.4; 200.0 µM
row,SMILES,solubility kinetic [µg/mL]
1,Cc1cccc(NC(=O)CN2C(=O)NC3(CCCCCCC3)C2=O)c1C,49
2,Cc1cc(C)cc(C(=O)NCc2ccc3c(c2)OCO3)c1,5.8
3,Cc1ccc2[nH]c3c(c2c1)CCN(C)C3,> 30
4,Cn1cc(-c2cc(C(=O)O)on2)cn1,> 29
5,C=CCNC(=O)NC(=O)CSc1nnc(C(F)(F)F)n1C,> 48.5
6,Cc1ccc(C)c(NC(=O)CN(C)C(=O)c2cccc(Oc3ccccc3)c2)c1,31.1
7,CC(C)Oc1ccc(C(=O)OCC(=O)c2ccc[nH]2)cc1,15.1
8,O=C(CN1C(=O)NC2(CCc3ccccc32)C1=O)c1ccc(Br)cc1 (centres undefined),4.4
9,O=C(CCNC(=O)c1ccccc1)Nc1cccnc1,> 40.4
10,CCCOc1ccc(C(=O)NC2CCSc3ccccc32)cc1 (centres undefined),1.6
11,CC1CCN(Cc2cc(=O)oc3ccc(C(C)C)cc23)CC1.Cl,4
12,Oc1ccc2ccccc2c1CN1CCN(C/C=C/c2ccccc2)CC1,10.1
13,CS(=O)(=O)c1ccc(NS(=O)(=O)c2ccc(Cl)c(C(=O)NC3=NCCS3)c2)cc1,24
14,Cc1ccc(Cl)cc1NC(=O)CN1CCOCC1,> 40.3
15,CCc1nc2ccccc2c(C(=O)NCc2ccc(OC)cc2)c1C,47.9
16,CCN1C(=O)N(CC)C2C1N(CO)C(=O)N2CO (centres undefined),> 38.7
17,O=C(COc1ccc(Cl)cc1)N1CCCCCCC1,31.8
18,CCOC(=O)C[n+]1ccc2c([nH]c3ccccc32)c1C.[Br-],49.7
19,NC(=O)C1CCN(C(=O)c2cccc3ccccc23)CC1,> 42.4
20,Cc1ccc(C(=O)NCC(=O)OC(C)C(=O)Nc2ccccc2[N+](=O)[O-])s1 (centres undefined),> 58.7

row,SMILES,solubility kinetic [µg/mL]
1,O=C(COC(=O)CNC(=O)c1ccccc1)NCCCc1ccccc1,52.3
2,O=C(O)c1cc([N+](=O)[O-])ccc1NCCc1ccccc1,> 42.9
3,CC(Sc1nnc(NC2CC2)s1)C(=O)Nc1ccc(S(N)(=O)=O)cc1 (centres undefined),> 59.9
4,O=C(c1ccncc1)N1CCN(S(=O)(=O)c2ccccc2F)CC1,> 52.4
5,Cc1nc(Cl)c(C#N)c2c1CCCC2,17.5
6,CC1(C)CC(=O)C=C(Nc2cccc(C(F)(F)F)c2)C1,24
7,CCc1nc(C(N)=O)c2[nH]c(=O)n(-c3ccc(OC)cc3OC)c2n1,> 51.5
8,CCN1CC2([N+](=O)[O-])CC=C(Cl)C([N+](=O)[O-])(C1)C2 (centres undefined),28.4
9,COc1cc(C(=O)Nc2nc(C)cc(C)n2)cc(OC)c1OC,45.4
10,CC[n+]1ccc(C(=O)NCc2ccccc2)cc1.[Cl-],> 41.5
11,N#Cc1ccc(N2CCOCC2)nc1,> 28.4
12,COc1ccc(CCNc2ncccc2C#N)cc1OC,> 42.5
13,Cc1nc(NCc2ccccc2)sc1C(=O)Nc1ccccc1,0.8
14,O=C1C2CC(O)CN2C(=S)N1Cc1ccccc1 (centres undefined),> 39.3
15,CCOc1ccc(C(C)NC(=S)NCc2ccc(F)cc2)cc1 (centres undefined),2.8
16,Cc1cc(NC(=O)COc2ccc([N+](=O)[O-])cc2)no1,5.8
17,Cc1cccc(C(=O)OC2CCCN(C)C2)c1C.Cl (centres undefined),36.9
18,COc1ccc(NC(=O)[C@@H]2CCCN2S(=O)(=O)c2ccc(Cl)cc2)cc1,> 59.2
19,COC(=O)c1nn(-c2ccc(OC)cc2)ccc1=O,> 39
20,Nc1ccccc1C#Cc1ccc([N+](=O)[O-])cc1,1.1

row,SMILES,solubility kinetic [µg/mL]
1,COc1cc(C(=O)O/N=C(\N)c2cccc([N+](=O)[O-])c2)cc(OC)c1OC,0.3
2,COc1cccc(C2CCCCN(C)C2=O)c1 (centres undefined),32.7
3,COc1ccc2nc(SCC(=O)Nc3ccccc3OC)[nH]c2c1,39.6
4,CC(=O)N(c1cccc(Br)c1)c1nc(C)cc(C)c1C#N,> 51.6
5,O=C(CN1C(=O)NC2(CCCC2)C1=O)OCCOc1ccccc1,> 49.9
6,CCc1ccc(Nc2c([N+](=O)[O-])c(=O)oc3ccccc23)cc1,1.4
7,Cc1ccc(C(=O)N2CCCc3ccccc32)c(F)c1F,17.2
8,O=C(Cn1cc(C(F)(F)F)ccc1=O)OCC(=O)c1ccc[nH]1,> 49.2
9,O=C(Nc1cccs1)N1CCN(c2ncccn2)CC1,> 43.4
10,CC(C)Oc1nc(-c2ccccc2Cl)nc2ccccc12,0.4
11,O=C(Nc1ccc2ccccc2c1)c1ccc(Br)o1,4.9
12,CC(C)(C)CC(=O)Nc1cc2c3c(c1)CCC(=O)N3CCC2,43.2
13,Cl.Clc1ccccc1CNCc1ccncc1,38.9
14,O=C(COC(=O)c1ccccc1OCc1ccccc1Cl)NCC1CCCO1 (centres undefined),> 60.6
15,N#Cc1ccc(C2N=C(c3ccccc3)NO2)cc1 (centres undefined),15.3
16,N#CCc1nc(C(c2ccccc2)c2ccccc2)no1,33.5
17,CC(=O)N1C(C(=O)O)Cc2c([nH]c3ccccc23)C1(C)C (centres undefined),> 42.9
18,COc1ccc(/C(N)=N/OC(=O)C2CCCCC2)cc1OC,35.2
19,CCNc1nc(NCc2ccccc2)nc(SCC(N)=O)n1,42.2
